From the supplement of paper PMC10307832

Assays:
Assay in all cases: relative viability (nuclei count vs DMSO), 5 days (fraction); higher = more cells survive
KIN001-266 + Crizotinib = compound: CCN1CCC(CC1)N2C=C(N=N2)CNC3=CC4=C(C(=CN=C4C(=C3)Cl)C#N)NC5=CC(=C(C=C5)F)Cl [KIN001-266] + C[C@@H](Oc1cc(-c2cnn(C3CCNCC3)c2)cnc1N)c1c(Cl)ccc(F)c1Cl [Crizotinib] (partner 1 µM)
In short: (§1)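 Relative viability divides the nuclei count in treated wells by that in vehicle wells. Lung cancer cell lines were seeded in 1536-well plates, dosed by pin tool the next day, and fixed and stained after 5 days in one step with final 0.05% Triton X-100, 1% formaldehyde and 1 ug/ml Hoechst. Dosing was a single drug or a fixed anchor-drug dose plus five library-drug doses (not always all listed) in √10 steps, and values are medians of duplicate plates imaged at 4×.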

KIN001-266 + Tozasertib = compound: CCN1CCC(CC1)N2C=C(N=N2)CNC3=CC4=C(C(=CN=C4C(=C3)Cl)C#N)NC5=CC(=C(C=C5)F)Cl [KIN001-266] + Cc1cc(Nc2cc(N3CCN(C)CC3)nc(Sc3ccc(NC(=O)C4CC4)cc3)n2)n[nH]1 [Tozasertib] (partner 0.1 µM)
In short: as §1

KIN001-266 + Navitoclax = compound: CCN1CCC(CC1)N2C=C(N=N2)CNC3=CC4=C(C(=CN=C4C(=C3)Cl)C#N)NC5=CC(=C(C=C5)F)Cl [KIN001-266] + CC1(C)CCC(c2ccc(Cl)cc2)=C(CN2CCN(c3ccc(C(=O)NS(=O)(=O)c4ccc(N[C@H](CCN5CCOCC5)CSc5ccccc5)c(S(=O)(=O)C(F)(F)F)c4)cc3)CC2)C1 [Navitoclax] (partner 0.5 µM)
In short: as §1

KIN001-266 + Vorinostat = compound: CCN1CCC(CC1)N2C=C(N=N2)CNC3=CC4=C(C(=CN=C4C(=C3)Cl)C#N)NC5=CC(=C(C=C5)F)Cl [KIN001-266] + O=C(CCCCCCC(=O)Nc1ccccc1)NO [Vorinostat] (partner 1 µM)
In short: as §1

Row | Cell Line | relative viability (KIN001-266 + Crizotinib; first compound 0.08 µM) | relative viability (KIN001-266 + Crizotinib; first compound 0.253 µM) | relative viability (KIN001-266 + Crizotinib; first compound 0.8 µM) | relative viability (KIN001-266 + Crizotinib; first compound 2.53 µM) | relative viability (KIN001-266 + Crizotinib; first compound 8 µM) | relative viability (KIN001-266 + Tozasertib; first compound 0.08 µM) | relative viability (KIN001-266 + Tozasertib; first compound 0.253 µM) | relative viability (KIN001-266 + Tozasertib; first compound 0.8 µM) | relative viability (KIN001-266 + Tozasertib; first compound 2.53 µM) | relative viability (KIN001-266 + Tozasertib; first compound 8 µM) | relative viability (KIN001-266 + Navitoclax; first compound 0.08 µM) | relative viability (KIN001-266 + Navitoclax; first compound 0.253 µM) | relative viability (KIN001-266 + Navitoclax; first compound 0.8 µM) | relative viability (KIN001-266 + Navitoclax; first compound 2.53 µM) | relative viability (KIN001-266 + Navitoclax; first compound 8 µM) | relative viability (KIN001-266 + Vorinostat; first compound 0.08 µM) | relative viability (KIN001-266 + Vorinostat; first compound 0.253 µM) | relative viability (KIN001-266 + Vorinostat; first compound 0.8 µM) | relative viability (KIN001-266 + Vorinostat; first compound 2.53 µM) | relative viability (KIN001-266 + Vorinostat; first compound 8 µM)
1 | PC-3 [JPC-3] | 0.986 | 0.911 | 0.872 | 0.952 | 0.896 | 0.844 | 0.916 | 0.774 | 0.815 | 0.788 | 0.813 | 0.869 | 0.759 | 0.738 | 0.803 | 0.856 | 0.887 | 0.801 | 0.987 | 0.847
2 | NCI-H1944 | 1.13 | 1.13 | 1.1 | 1.08 | 1.24 | 0.25 | 0.264 | 0.241 | 0.235 | 0.254 | 1.03 | 1.05 | 0.991 | 1.04 | 1.04 | 0.58 | 0.508 | 0.469 | 0.575 | 0.625
3 | HARA | 1.07 | 1.24 | 0.894 | 0.967 | 0.782 | 0.124 | 0.13 | 0.102 | 0.0995 | 0.0873 | 1.17 | 1.03 | 1.14 | 1.11 | 1.03 | 0.544 | 0.603 | 0.481 | 0.462 | 0.502
4 | NCI-H2126 | 1.04 | 1.02 | 0.965 | 1.05 | 1.08 | 0.8 | 0.857 | 0.85 | 0.84 | 0.78 | 0.844 | 0.86 | 0.863 | 0.813 | 0.855 | 0.809 | 0.783 | 0.751 | 0.732 | 0.694
5 | LXF-289 | 0.819 | 0.801 | 0.77 | 0.826 | 0.76 | 0.186 | 0.236 | 0.172 | 0.201 | 0.189 | 0.957 | 0.952 | 0.929 | 0.952 | 0.925 | 0.752 | 0.79 | 0.734 | 0.814 | 0.884
6 | NCI-H460 | 1.01 | 0.872 | 1.12 | 0.808 | 0.67 | 0.553 | 0.423 | 0.333 | 0.54 | 0.121 | 1.16 | 1.2 | 1.15 | 1.03 | 1.07 | 0.725 | 0.697 | 0.735 | 0.649 | 0.671
7 | NCI-H2170 | 1.17 | 1.19 | 1.22 | 1.11 | 1.18 | 0.802 | 0.715 | 0.623 | 0.785 | 0.709 | 0.598 | 0.549 | 0.623 | 0.647 | 0.605 | 0.853 | 0.759 | 0.828 | 0.752 | 0.83
8 | NCI-H2009 | 1.05 | 1.05 | 0.984 | 0.928 | 0.901 | 0.788 | 0.704 | 0.808 | 0.674 | 0.386 | 1.14 | 1.13 | 1.16 | 1.07 | 1.1 | 0.724 | 0.736 | 0.676 | 0.653 | 0.516
